This note sets out measurements from patent US9376425B2, “Heterocyclic compounds as MDM2 inhibitors for the treatment of cancer” (AMGEN INC., priority 2011, dated 2016).

The term pIC50 denotes the negative decadic logarithm of the IC50, by convention in mol/L. Lower therefore signals a high IC50.

pIC50: −log10 of the molar value.

T1 sequence (Q00987 1-188): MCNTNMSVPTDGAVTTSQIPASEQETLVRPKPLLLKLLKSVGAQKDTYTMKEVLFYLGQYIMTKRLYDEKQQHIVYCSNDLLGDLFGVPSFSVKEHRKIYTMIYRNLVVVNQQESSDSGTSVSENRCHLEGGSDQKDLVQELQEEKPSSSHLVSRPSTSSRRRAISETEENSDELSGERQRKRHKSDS

This assay concerns the target T1, human MDM2 (GST-hMDM2 1-188), interaction with biotinylated-p53 (1-83) (Homo sapiens, UniProt Q00987).
T1 construct: Amino acid residues 1-188 of human MDM2 were expressed; made in house; host or cells: Escherichia coli
In words: improved HTRF assay (HTRF2 assay), inhibition of HDM2-p53 interaction. To be noted: 0.2 nM GST-hMDM2, 0.5 nM biotinylated-p53, 100 mM KF. Type of assay: binding. Summed up:
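Time-resolved fluorescence (HTRF) read after >4 h equilibration with SA-XLent/anti-GST cryptate/KF detection reagents. Reaction: compound plus GST-hMDM2 for 20 min at room temperature, then E. coli-expressed biotinylated p53 residues 1-83 for 60 min, 2% DMSO final. Inhibition expressed versus nutlin-3.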
Background: In TR-FRET formats the signal depends on donor and acceptor labels being close together.
In turn, `C[C@@H](CS(=O)(=O)C(C)(C)C)N1C(=O)[C@@H](CC(N)=O)O[C@H](c2cccc(Cl)c2)[C@H]1c1ccc(Cl)cc1` (single isomer, unassigned) [Example 225, 2-((2R,5R,6R)-4-((S)-1-(tert-butylsulfonyl)propan-2-yl)-6-(3-chlorophenyl)-5-(4-chlorophenyl)-3-oxomorpholin-2-yl)acetamide or 2-((2S,5R,6R)-4-((S)-1-(tert-butylsulfonyl)propan-2-yl)-6-(3-chlorophenyl)-5-(4-chlorophenyl)-3-oxomorpholin-2-yl)acetamide] had a pIC50 of 8.22.

Take `CC(C)[C@@H](CN(c1ccccc1F)S(=O)(=O)C(C)(C)C)N1C(=O)[C@@H](CC(=O)O)O[C@H](c2cccc(Cl)c2)[C@H]1c1ccc(Cl)cc1` (single isomer, unassigned) [Example 200, 2-((2R,5R,6R)-6-(3-chlorophenyl)-5-(4-chlorophenyl)-4-((S)-1-(N-(2-fluorophenyl)-2-methylpropan-2-ylsulfonamido)-3-methylbutan-2-yl)-3-oxomorpholin-2-yl)acetic acid or 2-((2S,5R,6R)-6-(3-chlorophenyl)-5-(4-chlorophenyl)-4-((S)-1-(N-(2-fluorophenyl)-2-methylpropan-2-ylsulfonamido)-3-methylbutan-2-yl)-3-oxomorpholin-2-yl)acetic acid]: the pIC50 is 9.00.

The compound `CC(C)(C)S(=O)(=O)C[C@H](CC(F)(F)F)N1C(=O)[C@@H](CC(N)=O)O[C@H](c2cccc(Cl)c2)[C@H]1c1ccc(Cl)cc1` (single isomer, unassigned) [Example 362, 2-((2R,5R,6R)-4-((S)-1-(tert-Butylsulfonyl)-4,4,4-trifluorobutan-2-yl)-6-(3-chlorophenyl)-5-(4-chlorophenyl)-3-oxomorpholin-2-yl)acetamide or 2-((2S,5R,6R)-4-((S)-1-(tert-butylsulfonyl)-4,4,4-trifluorobutan-2-yl)-6-(3-chlorophenyl)-5-(4-chlorophenyl)-3-oxomorpholin-2-yl)acetamide] had a pIC50 of 7.70.

`O=C(O)C[C@H]1O[C@H](c2cccc(Cl)c2)[C@@H](c2ccc(Cl)cc2)N([C@H](CS(=O)(=O)N2CCc3cc(F)ccc32)C2CC2)C1=O` (single isomer, unassigned) [Example 298, 2-((2R,5R,6R)-6-(3-Chlorophenyl)-5-(4-chlorophenyl)-4-((S)-1-cyclopropyl-2-((5-fluoroindolin-1-yl)sulfonyl)ethyl)-3-oxomorpholin-2-yl)acetic acid or 2-((2S,5R,6R)-6-(3-chlorophenyl)-5-(4-chlorophenyl)-4-((S)-1-cyclopropyl-2-((5-fluoroindolin-1-yl)sulfonyl)ethyl)-3-oxomorpholin-2-yl)acetic acid] showed a pIC50 of 7.59.

With `CC[C@@H](CN(c1ccccc1F)S(=O)(=O)C1CC1)N1C(=O)[C@@H](CC(N)=O)O[C@H](c2cccc(Cl)c2)[C@H]1c1ccc(Cl)cc1` (single isomer, unassigned) [Example 242, 2-((2R,5R,6R)-6-(3-chlorophenyl)-5-(4-chlorophenyl)-4-((S)-1-(N-(2-fluorophenyl)cyclopropanesulfonamido)butan-2-yl)-3-oxomorpholin-2-yl)acetamide or 2-((2S,5R,6R)-6-(3-chlorophenyl)-5-(4-chlorophenyl)-4-((S)-1-(N-(2-fluorophenyl)cyclopropanesulfonamido)butan-2-yl)-3-oxomorpholin-2-yl)acetamide], the pIC50 was 8.70.
